The text below walks through data of patent US8791132B2, “Compounds and methods for treatment of hypertension” (Medivation Technologies, Inc., priority 2011, dated 2014).

By inhibition is commonly meant the drop in the measured response relative to a control, in per cent. As usually defined, the Ki is a measure of affinity in units of concentration, obtained from inhibition or displacement.

Values joined by “and” are separate entries in the source; they are usually repeats but may differ in a detail not shown here. Equal entries are not always repeated. Where two headings read alike, the source gives them in different places.

Test [1] concerns the target T1, human recombinant adrenergic α2B receptor (Homo sapiens, UniProt P18089).
T1 construct: expressed in transfected cells; host or cells: CHO-K1
T1 sequence (P18089 1-450): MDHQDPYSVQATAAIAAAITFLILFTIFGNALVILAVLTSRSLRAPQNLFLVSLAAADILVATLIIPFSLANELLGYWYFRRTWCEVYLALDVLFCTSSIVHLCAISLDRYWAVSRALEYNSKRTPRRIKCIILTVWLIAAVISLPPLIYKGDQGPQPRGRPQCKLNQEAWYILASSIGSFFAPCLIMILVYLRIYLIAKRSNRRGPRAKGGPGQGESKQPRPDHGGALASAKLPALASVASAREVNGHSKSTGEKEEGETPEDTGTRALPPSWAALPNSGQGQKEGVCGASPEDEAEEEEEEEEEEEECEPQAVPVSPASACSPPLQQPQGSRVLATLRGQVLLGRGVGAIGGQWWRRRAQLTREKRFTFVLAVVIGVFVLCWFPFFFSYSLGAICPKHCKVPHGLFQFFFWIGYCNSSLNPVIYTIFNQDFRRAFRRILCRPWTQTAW
The test can be described thus: Radioligand binding, adrenergic α2B ([3H]Rauwolscine). The procedure, abridged:
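Readout: percent inhibition of specific [3H]Rauwolscine binding, measured by filtration and counting. Conditions: CHO-K1 cell-expressed receptor, 2.5 nM radioligand, 60 min, 25° C, Tris-HCl pH 7.4 buffer with MgCl2, EDTA, BSA. Non-specific binding: 10 μM Prazosin.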

Test [2] addresses T2, human recombinant adrenergic α2A receptor (Homo sapiens, UniProt P08913).
T2 construct: expressed in transfected cells; host or cells: insect Sf9 cells
T2 sequence (P08913 1-465): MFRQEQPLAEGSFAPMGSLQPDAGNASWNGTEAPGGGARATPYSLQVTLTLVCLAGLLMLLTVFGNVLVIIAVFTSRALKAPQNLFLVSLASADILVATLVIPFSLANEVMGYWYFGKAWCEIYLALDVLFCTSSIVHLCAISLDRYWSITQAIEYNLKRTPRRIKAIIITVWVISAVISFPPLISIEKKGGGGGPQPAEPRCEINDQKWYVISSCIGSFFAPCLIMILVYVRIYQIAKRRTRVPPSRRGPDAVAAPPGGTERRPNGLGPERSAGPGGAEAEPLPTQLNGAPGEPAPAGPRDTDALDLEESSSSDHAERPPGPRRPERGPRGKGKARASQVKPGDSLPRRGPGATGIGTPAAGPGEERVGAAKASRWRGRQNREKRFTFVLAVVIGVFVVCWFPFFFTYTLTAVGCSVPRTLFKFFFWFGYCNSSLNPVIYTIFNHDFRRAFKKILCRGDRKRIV
Nature of the test: Radioligand binding, adrenergic α2A ([3H]MK-912). The following applies: for Percentage inhibition of ligand binding, Adrenergic α2A: 0.1 µM. In short, it runs like this: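 In 50 mM Tris-HCl (pH 7.4) containing 12.5 mM MgCl2 and 2 mM EDTA, Sf9-expressed receptor was exposed to test compound plus 1 nM [3H]MK-912 at 25 °C for 60 min. Specific binding, corrected using 10 μM WB-4101, was quantified by filtration and counting and expressed as percent inhibition.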

Test [3] has as its target T3, rat adrenergic α1B receptor (Rattus norvegicus, UniProt P15823).
T3 construct: rat adrenergic α1B receptor obtained from Wistar Rat liver; from tissue; host or cells: Wistar rat liver
T3 sequence (P15823 1-515): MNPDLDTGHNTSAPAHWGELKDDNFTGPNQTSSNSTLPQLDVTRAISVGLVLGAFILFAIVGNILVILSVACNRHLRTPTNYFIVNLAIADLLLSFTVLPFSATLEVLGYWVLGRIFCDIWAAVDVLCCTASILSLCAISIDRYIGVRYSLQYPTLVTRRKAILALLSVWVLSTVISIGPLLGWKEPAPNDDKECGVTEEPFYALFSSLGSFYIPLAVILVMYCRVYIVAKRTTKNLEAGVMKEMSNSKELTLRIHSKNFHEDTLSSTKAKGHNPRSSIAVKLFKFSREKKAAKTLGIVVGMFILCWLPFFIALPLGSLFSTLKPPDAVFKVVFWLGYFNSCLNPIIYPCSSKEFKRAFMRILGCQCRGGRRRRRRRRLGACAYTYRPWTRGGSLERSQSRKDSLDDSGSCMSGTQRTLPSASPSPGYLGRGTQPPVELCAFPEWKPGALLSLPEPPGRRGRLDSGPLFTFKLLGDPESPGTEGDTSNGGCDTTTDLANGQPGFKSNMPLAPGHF
The test can be described thus: Radioligand binding, adrenergic α1B ([3H]Prazosin). In short, it runs like this:
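Filter binding with Wistar rat liver α1B preparation: test compound plus 0.25 nM [3H]prazosin, 1 h at 25° C in modified Tris-HCl buffer pH 7.4.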

The target of test [4] is T4, human recombinant adrenergic α1D receptor (Homo sapiens, UniProt P25100).
T4 construct: expressed in transfected cells; host or cells: HEK-293
T4 sequence (P25100 1-572): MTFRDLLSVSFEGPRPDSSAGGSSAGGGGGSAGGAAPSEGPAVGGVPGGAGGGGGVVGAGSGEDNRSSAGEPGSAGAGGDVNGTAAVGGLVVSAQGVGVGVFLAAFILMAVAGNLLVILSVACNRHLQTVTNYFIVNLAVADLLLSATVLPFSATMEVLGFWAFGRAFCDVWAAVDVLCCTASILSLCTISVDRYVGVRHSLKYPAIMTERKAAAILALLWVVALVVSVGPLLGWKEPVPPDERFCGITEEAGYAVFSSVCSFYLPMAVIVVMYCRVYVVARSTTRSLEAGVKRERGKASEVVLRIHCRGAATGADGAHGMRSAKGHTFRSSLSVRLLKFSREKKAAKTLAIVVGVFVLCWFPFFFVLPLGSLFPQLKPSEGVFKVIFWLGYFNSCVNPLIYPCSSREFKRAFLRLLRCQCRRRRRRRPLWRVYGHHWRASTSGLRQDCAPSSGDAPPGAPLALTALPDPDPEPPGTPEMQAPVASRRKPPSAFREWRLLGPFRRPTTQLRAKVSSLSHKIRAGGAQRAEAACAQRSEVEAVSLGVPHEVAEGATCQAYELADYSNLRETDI
The test can be described thus: Radioligand binding, adrenergic α1D ([3H]Prazosin). How it is done: Compounds were incubated with 0.6 nM [3H]Prazosin for 60 min at 25° C. Non-specific binding was estimated in the presence of 10 μM phentolamine. Receptor proteins were filtered and washed, the filters were then counted to determine [3H]Prazosin specifically bound. […] Biochemical assay results are presented as the percent inhibition of specific binding in Table B1.

Setting [5] is: read-out: Percentage inhibition of ligand binding, Adrenergic α2B (0.1 μM), compound at 0.1 μM, [3H]Rauwolscine, repeat datapoints each shown.
The mark [6] stands for this setting: read-out: Percentage inhibition of ligand binding, Adrenergic α2A (0.1 μM), compound at 0.1 μM, [3H]MK-912, repeat datapoints each shown.
The mark [7] stands for this setting: read-out: Percentage inhibition of ligand binding, Adrenergic α1B (0.1 μM), compound at 0.1 μM, [3H]Prazosin, repeat datapoints each shown.
Where [8] appears, read: read-out: Percentage inhibition of ligand binding, Adrenergic α1D (0.1 μM), compound at 0.1 μM, [3H]Prazosin, repeat datapoints each shown.
[9] abbreviates: 0.1 μM compound, read-out: Percentage inhibition of ligand binding, Adrenergic α2B.
Setting [10] is: 0.1 μM compound, read-out: Percentage inhibition of ligand binding, Adrenergic α2A.
[11] abbreviates: 0.1 μM compound, read-out: Percentage inhibition of ligand binding, Adrenergic α1B.
[12] abbreviates: 0.1 μM compound, read-out: Percentage inhibition of ligand binding, Adrenergic α1D.

For `C/C(=C\n1c2c(c3cc(C)ccc31)CCN(C)CC2)c1ccccc1F` [compound 232], the inhibition at 0.1 µM turned out to be 102% in test [1] (setting [5]), 87% in test [2] (setting [6]), 87% in test [3] (setting [7]) and 43% in test [4] (setting [8]).
Turning to `C/C(=C\n1c2c(c3cc(Cl)ccc31)CCN(C)CC2)c1ccccc1F` [compound 233], the inhibition at 0.1 µM in test [1] (setting [5]) came to 103%; in test [2] (setting [6]), 80%; in test [3] (setting [7]), 73%; in test [4] (setting [8]), 28%.
On to `C/C(=C\n1c2c(c3cc(Cl)ccc31)CCN(C)CC2)c1ccccc1Cl` [compound 235], for which the inhibition at 0.1 µM came to 96% in test [1] (setting [5]), 80% in test [2] (setting [6]), 48% in test [3] (setting [7]) and 11% in test [4] (setting [8]).
In the same order, the values of `C/C(=C/n1c2c(c3cc(C)ccc31)CN(C)CC2)c1cccc(F)c1` [compound 236] are 98%, 99%, 94% and 85%.
`C/C(=C\n1c2c(c3cc(C)ccc31)CN(C)CC2)c1cccc(F)c1` [compound 237]: the inhibition at 0.1 µM was 99% in test [1] (setting [5]), 98% in test [2] (setting [6]), 80% in test [3] (setting [7]) and 52% in test [4] (setting [8]).
In the same order, the values of `C/C(=C\n1c2c(c3cc(C)ccc31)CCN(C)CC2)c1ccc(Cl)c(Cl)c1` [compound 238] are 98%, 94%, 67% and 25%.
In the case of `COc1ccc(C#Cn2c3c(c4cc(Cl)ccc42)CCN(C)CC3)cc1F` [compound 242], the inhibition at 0.1 µM in test [1] (setting [9]) was 98%; in test [2] (setting [10]) it was 50%; in test [3] (setting [11]), 53%; in test [4] (setting [12]), 37%.
On to `C/C(=C\n1c2c(c3cc(C)ccc31)CN(C)CC2)c1ccc(Cl)c(Cl)c1` [compound 243], for which the inhibition at 0.1 µM in test [1] (setting [9]) came to 105%; in test [2] (setting [10]) it was 90%; in test [3] (setting [11]) it was 58%; in test [4] (setting [12]), 45%. The inhibitory constant (Ki) in test [2] amounted to 3.86 nM. Further, the inhibition at 0.03 µM in test [2] (0.03 μM compound, read-out: Percentage inhibition of ligand binding, Adrenergic α2A) stood at 73%. For the same compound, the “Percentage inhibition of ligand binding, Adrenergic α2A” value in test [2] (0.1 μM compound) stood at 98%.
`C/C(=C\n1c2c(c3cc(Cl)ccc31)CCN(C)CC2)c1cccnc1` [compound 244]: the inhibition at 0.1 µM came out at 99% in test [1] (setting [9]), 76% in test [2] (setting [10]), 78% in test [3] (setting [11]) and 42% in test [4] (setting [12]).
For `C/C(=C\n1c2c(c3cc(C)ccc31)CCN(C)CC2)c1cccnc1` [compound 245], the inhibition at 0.1 µM in test [1] (setting [9]) is 96%; in test [2] (setting [10]) it was 65%; in test [3] (setting [11]) it was 69%; in test [4] (setting [12]), 35%.
In the same order, the values of `COc1ccc(/C(C)=C/n2c3c(c4cc(Cl)ccc42)CCN(C)CC3)cc1` [compound 246] are 101%, 86%, 82% and 68%.
In the same order, the values of `C/C(=C/n1c2c(c3cc(Cl)ccc31)CCN(C)CC2)c1cccc(F)c1` [compound 247] are 89%, 96%, 95% and 81%.
The matching figures for `C/C(=C\n1c2c(c3cc(Cl)ccc31)CCN(C)CC2)c1cccc(F)c1` [compound 248]: 95%, 90%, 76% and 31%.
As to `C/C(=C/n1c2c(c3cc(C)ccc31)CCN(C)CC2)c1cccc(F)c1` [compound 249], the inhibition at 0.1 µM in test [1] (setting [9]) was found to be 98%; in test [2] (setting [10]), 98%; in test [3] (setting [11]) it was 95%; in test [4] (setting [12]) it was 82%.
In the case of `C/C(=C\n1c2c(c3cc(C)ccc31)CN(C)CC2)c1cccnc1` [compound 250], the inhibition at 0.1 µM in test [1] (setting [9]) was 105%; in test [2] (setting [10]), 62%; in test [3] (setting [11]), 37%; in test [4] (setting [12]) it was 22%.
In the same order, the values of `COc1ccc(/C(C)=C/n2c3c(c4cc(C)ccc42)CCN(C)CC3)cc1` [compound 251] are 101%, 85%, 89% and 53%.
The matching figures for `C/C(=C/n1c2c(c3cc(Cl)ccc31)CN(C)CC2)c1cc(F)c(F)cc1Cl` [compound 252]: 52%, 66%, 36% and 13%.
Consider `CN1CCc2c(c3cc(Cl)c(Cl)cc3n2CC(C)(O)c2ccncc2)C1` (stereo not drawn) [compound 253], for which, in test [1] (0.1 μM compound, 0.1 µM), the “Percentage inhibition of ligand binding, Adrenergic α2B” value was 64% and 86%. For the same compound, the “Percentage inhibition of ligand binding, Adrenergic α2A” value in test [2] (0.1 μM compound) came to 64%. For the same compound, the inhibition at 0.1 µM came to 44% in test [2] (setting [10]), 54% in test [3] (setting [11]) and 18% in test [4] (setting [12]). Besides, in test [3] (0.1 μM compound, 0.1 µM), the “Percentage inhibition of ligand binding, Adrenergic α1B” value is on record as 55%. Also, the “Percentage inhibition of ligand binding, Adrenergic α1D” value in test [4] (0.1 μM compound, 0.1 µM) was determined as 24%.
